Test results: patent US4399137A, “6-Imidazol-1-yl-3-hydrazino-pyridazines, their preparation and antihypertensive use” (BASF Aktiengesellschaft, priority 1979, dated 1983)
Read-outs that look alike come from different tables or passages of the source.

What was measured:
[1] = tested on: spontaneously hypertonic rats; test: Anti-hypertensive action on spontaneously hypertonic rats (SHR), oral administration; format: in vivo, rat (Okamoto; conditions: for ED20: Rattus norvegicus, dose which lowers systolic pressure by 20%, 2 hours after administration, read-out: Anti-hypertensive action ED 20%; for ED20 / Anti-hypertensive action R.E. (relative effectiveness): SHR, oral; for Anti-hypertensive action R.E. (relative effectiveness): dihydralazine = 1.00; for times as effective as dihydralazine: wake spontaneously hypertonic rats
Procedure: The anti-hypertensive action was determined on spontaneously hypertonic rats (Okamoto). The substances were administered orally to groups of from 4 to 8 male animals. Before, and 2 hours after, administration, the systolic blood pressure was measured on the tail of the rat by means of a piezoelectric crystal sensor. The ED 20 was determined, as the dose which lowers the systolic pressure by 20%, from the linear regression between the logarithm of the dose (mg/kg) and the relative lowering of blood pressure (Δ%), with due account taken of the values found with placebo-treated control animals.

narcotized rats = test: Hypotensive action (blood pressure lowering) on narcotized rats, intravenous administration; format: in vivo, rat (Sprague Dawley); conditions: for ED20: Rattus norvegicus, dose producing a 20% lowering of blood pressure, read-out: Hypotensive action ED 20%; for ED20 / Hypotensive action R.E. (relative effectiveness) / factor by which blood pressure-lowering doses are lower than the dihydralazine doses: narcotized rats; for ED20 / Hypotensive action R.E. (relative effectiveness): intravenous; for blood pressure-lowering properties (in words): general statement, no specific model named; for Hypotensive action R.E. (relative effectiveness): dihydralazine = 1.00; for factor by which blood pressure-lowering doses are lower than the dihydralazine doses: relative to dihydralazine
Procedure: The blood pressure was measured in the […]. The substance was administered into the jugular vein (using 1 ml/kg of an aqueous solution). The ED 20% was determined, as the dose producing a 20% lowering of blood pressure, from the linear regression between the logarithm of the dose (mg/kg) and the relative lowering of the blood pressure (Δ%).

[2] = Acute toxicity (LD 50), intraperitoneal administration; format: in vivo; conditions: mouse, in vivo; for LD50 at 168 h: ip, mice, intraperitoneal, 50% of the animals died within 7 days
Procedure: (§1) To determine the acute toxicity (LD 50), the substances were administered intraperitoneally to groups of 10 female NMRI mice (weighing 20-25 g each).
(§2) The LD 50 was computed (by Probit analysis) as the dose after which 50% of the animals died within 7 days.

mice = test: as above; format: in vivo; conditions: mice, intraperitoneal; dihydralazine = 1.00
Procedure: as §1, §2

[3] = LD 50 (mice, i.p.) relative to anti-hypertensive ED 20% (SHR, oral), read-out: Therapeutic range Q
[4] = ratio LD 50 / anti-hypertensive dose, read-out: toxic doses (LD 50) times as great as the anti-hypertensive doses

## Cc1nccn1-c1ccc(NN)nn1 [Example 1 a, 3-Hydrazino-6-(2-methyl-imidazol-1-yl)-pyridazine]
[1]
  ED20: 1.41 mg/kg
  Anti-hypertensive action R.E. (relative effectiveness): 4.86
  times as effective as dihydralazine: 4.9
Narcotized rats
  ED20: 0.031 mg/kg
  blood pressure-lowering properties (in words): Particularly active
  Hypotensive action R.E. (relative effectiveness): 2.75
  factor by which blood pressure-lowering doses are lower than the dihydralazine doses: 2.8
[2]
  LD50 at 168 h: 193 mg/kg
[2]; [3]
  selectivity ratio: 137
mice
  Toxicity R.E.: 1.06

## CCc1nccn1-c1ccc(NN)nn1 [Example 1 c, 3-Hydrazino-6-(2-ethyl-imidazol-1-yl)-pyridazine]
[1]
  ED20: 2.91 mg/kg
  Anti-hypertensive action R.E. (relative effectiveness): 2.35
  times as effective as dihydralazine: 2.4
Narcotized rats
  ED20: 0.0638 mg/kg
  blood pressure-lowering properties (in words): Particularly active
  Hypotensive action R.E. (relative effectiveness): 1.34
  factor by which blood pressure-lowering doses are lower than the dihydralazine doses: 1.3
[2]
  LD50 at 168 h: 156 mg/kg
[2]; [3]
  selectivity ratio: 53.6
mice
  Toxicity R.E.: 1.32

## CCc1nccn1-c1ccc(NN=C(C)C)nn1 [Example 2 b, 3-(2-Isopropylidene-hydrazino)-6-(2-ethyl-imidazol-1-yl)-pyridazine]
[1]
  ED20: 2.48 mg/kg
  Anti-hypertensive action R.E. (relative effectiveness): 2.76
Narcotized rats
  ED20: 0.0464 mg/kg
  blood pressure-lowering properties (in words): Particularly active
  Hypotensive action R.E. (relative effectiveness): 1.84
[2]
  LD50 at 168 h: 124 mg/kg
[2]; [3]
  selectivity ratio: 50.1
mice
  Toxicity R.E.: 1.66

## NNc1nnc(NN)c2ccccc12 [Dihydralazine, dihydralazine, reference compound]
[1]
  ED20: 6.85 mg/kg
  Anti-hypertensive action R.E. (relative effectiveness): 1.00
Narcotized rats
  ED20: 0.0854 mg/kg
  Hypotensive action R.E. (relative effectiveness): 1.00
[2]
  LD50 at 168 h: 206 mg/kg
[2]; [4]
  selectivity ratio: 30
[2]; [3]
  selectivity ratio: 30.1
mice
  Toxicity R.E.: 1.00

## CC(C)=NNc1ccc(-n2ccnc2C)nn1 [Example 2 a, 3-(2-Isopropylidene-hydrazino)-6-(2-methyl-imidazol-1-yl)-pyridazine]
[1]
  ED20: 2.46 mg/kg
  Anti-hypertensive action R.E. (relative effectiveness): 2.78
Narcotized rats
  ED20: 0.0464 mg/kg
  blood pressure-lowering properties (in words): Particularly active
  Hypotensive action R.E. (relative effectiveness): 1.84
[2]
  LD50 at 168 h: 98.6 mg/kg
[2]; [4]
  selectivity ratio: 40
[2]; [3]
  selectivity ratio: 40.1
mice
  Toxicity R.E.: 2.09
